Measurements as given in ChEMBL document CHEMBL1201862, “PubChem BioAssay data set” (2004).
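How tested: cells in 96-well plates exposed to compound for 48 hours at five concentrations. Abbreviation: GI50, concentration required for 50% inhibition of growth.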 Calls of active or inactive are those of the source. Cut-off read from the data, not from the text of the source: active = GI50 up to about 1.1 µM and inactive = higher.

Key:
Experiment in all cases: NCI-60 cell line screen, 48 h
NCI-H522 = system: NCI-H522
SF-539 = system: SF-539
SK-MEL-2 = system: SK-MEL-2
EKVX = system: EKVX
ACHN = system: ACHN
OVCAR-3 = system: OVCAR-3
NCI-H460 = system: NCI-H460
M14 = system: M14
IGROV-1 = system: IGROV-1
SF-268 = system: SF-268
HT-29 = system: HT-29
OVCAR-5 = system: OVCAR-5
HCT-15 = system: HCT-15
HOP-62 = system: HOP-62
M19-MEL = system: M19-MEL
CCRF-CEM = system: CCRF-CEM
KM12 = system: KM12
HOP-92 = system: HOP-92

Compound | GI50 (NCI-H522) | GI50 (SF-539) | GI50 (SK-MEL-2) | GI50 (EKVX) | GI50 (ACHN) | GI50 (OVCAR-3) | GI50 (NCI-H460) | GI50 (M14) | GI50 (IGROV-1) | GI50 (SF-268) | GI50 (HT-29) | GI50 (OVCAR-5) | GI50 (HCT-15) [µM] | GI50 (HOP-62) | GI50 (M19-MEL) | GI50 (CCRF-CEM) | GI50 (KM12) | GI50 (HOP-92)
O=C(O)[C@H](NS(=O)(=O)c1ccc(F)cc1)c1ccccc1 | > 100 µM (inactive) | > 100 µM (inactive) | > 100 µM (inactive) | > 100 µM (inactive) | > 100 µM (inactive) | > 100 µM (inactive) | > 100 µM (inactive) | > 100 µM (inactive) | > 100 µM (inactive) | > 100 µM (inactive) | > 100 µM (inactive) | > 100 µM (inactive) | > 100 | > 100 µM (inactive) | > 100 µM (inactive) | > 100 µM (inactive) |  | 
CC12CC(=O)NN=C1c1ccccc1C2 (configuration not stated) | > 100 µM (inactive) | > 100 µM (inactive) | > 100 µM (inactive) | 98.2 µM (inactive) | > 100 µM (inactive) | > 100 µM (inactive) | > 100 µM (inactive) | > 100 µM (inactive) | > 100 µM (inactive) | > 100 µM (inactive) | > 100 µM (inactive) | > 100 µM (inactive) | > 100 | > 100 µM (inactive) | > 100 µM (inactive) | > 100 µM (inactive) | > 100 µM (inactive) | 
COc1cc2cccc(/N=C\c3cccc(OC)c3OC(C)C)c2cc1OC | 17.9 µM (inactive) |  | 18 µM (inactive) | 52 µM (inactive) | 36.6 µM (inactive) | 19.4 µM (inactive) | 33.9 µM (inactive) | 17.9 µM (inactive) | 24 µM (inactive) | 24.4 µM (inactive) | 23.2 µM (inactive) | > 100 µM (inactive) |  | 26.5 µM (inactive) | 21.3 µM (inactive) | 21.2 µM (inactive) | 19 µM (inactive) | 
Cc1cccc(-n2c(N)c(-c3nc4ccccc4[nH]3)sc2=S)c1 | 25.6 µM (inactive) | 20.4 µM (inactive) | 23.7 µM (inactive) | 48.4 µM (inactive) | 23.9 µM (inactive) | 25 µM (inactive) |  | 25.3 µM (inactive) | 30.8 µM (inactive) | 76.6 µM (inactive) | 23.1 µM (inactive) | 55.1 µM (inactive) | 20.7 | 29.6 µM (inactive) | 25.8 µM (inactive) | 32.2 µM (inactive) | 22 µM (inactive) | 
O=[N+]([O-])c1ccc(C2=Nn3c(nnc3-c3ccccc3)SC2)o1 |  | 18.8 µM (inactive) | 20.9 µM (inactive) | 46.8 µM (inactive) | 19.4 µM (inactive) | 17.3 µM (inactive) | 18.6 µM (inactive) | 17.6 µM (inactive) | 21.8 µM (inactive) | 20.2 µM (inactive) | 23.7 µM (inactive) | 29.6 µM (inactive) | 16.1 | 44.3 µM (inactive) | 18.5 µM (inactive) | 3.6 µM (inactive) | 18 µM (inactive) | 13.2 µM (inactive)
Cc1cc2nc3c(=O)[nH]c(=O)nc-3n(CC(O)C(O)C(O)CO)c2cc1N (configuration not stated) |  | > 100 µM (inactive) | > 100 µM (inactive) | > 100 µM (inactive) | > 100 µM (inactive) | > 100 µM (inactive) | > 100 µM (inactive) | > 100 µM (inactive) | > 100 µM (inactive) |  | > 100 µM (inactive) |  | > 100 |  | > 100 µM (inactive) | > 100 µM (inactive) | > 100 µM (inactive) | > 100 µM (inactive)
C/C=N\N1C(=O)c2ccccc2C1=O |  | > 100 µM (inactive) | > 100 µM (inactive) | > 100 µM (inactive) | > 100 µM (inactive) | > 100 µM (inactive) | > 100 µM (inactive) | > 100 µM (inactive) | > 100 µM (inactive) | > 100 µM (inactive) | > 100 µM (inactive) | > 100 µM (inactive) | > 100 | > 100 µM (inactive) | > 100 µM (inactive) | > 100 µM (inactive) | > 100 µM (inactive) | > 100 µM (inactive)
